The values below come from PMC9332802, “Structure–Activity Relationship of New Chimeric Analogs of Mastoparan from the Wasp Venom Paravespula lewisii” (International Journal of Molecular Sciences, 2022).

In series [1] the test system is Staphylococcus aureus NCTC 4163. The series is described as follows: microbe, parasite or virus in culture. The class given is cell-based. Particulars: for MIC: read-out: MIC S. aureus; for MIC S. aureus: peptide 0.125 to […], no visible growth. The procedure: (§1) Antimicrobial activity of peptides was examined against three reference strains: Staphylococcus aureus NCTC 4163, Escherichia coli NCTC 8196 and Pseudomonas aeruginosae NCTC 6749 dedicated for the determination of antibacterial activity. The bacterial strains were stored in glycerol stock (Sigma-Aldrich, St. Louis, MO, USA) at −80 °C. Before testing, the strains were cultured aerobically in Tryptic Soy Agar (BD DIFCO, Franklin Lakes, NJ, USA) at 37 °C for 20 h. The susceptibility of microorganisms to the peptides was determined by the broth microdilution assay according to the procedures outlined by CLSI [49]. […] In order to prepare the bacterial suspension, an overnight culture of bacteria in Tryptic Soy Broth (BD DIFCO, Franklin Lakes, NJ, USA) was diluted in sterile saline to a final concentration of approximately 10^7 CFU/mL of bacteria. Aliquots (5 µL) of bacterial suspension were added to each peptide solution. The sterility control (containing the tested peptide in broth) and the growth control (containing the reference strain in broth without the tested peptide) were also set up. The plates were incubated at 37 °C under aerobic conditions. The results are expressed as the minimal inhibitory concentration (MIC) of the compounds in question. The MIC was defined as the lowest concentration at which no visible growth of bacteria (no turbidity) was observed. The assay was performed in triplicate.

Series [2] deals with Escherichia coli NCTC 8196. The series is described as follows: microbe, parasite or virus in culture. The series is classed as cell-based. Particulars: for MIC E. coli: peptide 0.125 to […], no visible growth. How it is done: as §1
In series [3] the test system is Pseudomonas aeruginosae NCTC 6749. The series is described as follows: microbe, parasite or virus in culture. The class given is cell-based. Particulars: for MIC P. aeruginosae: broth microdilution (CLSI), Mueller–Hinton broth, 37 °C, peptide 0.125 to […], no visible growth, triplicate. How it is done: as §1
On the technique in general: Broth dilution looks for growth in wells or tubes with falling amounts of substance.

Series [4] can be described thus: Circular dichroism spectroscopy, relative α-helix fraction. The class given is physicochemical. Particulars: CD, peptide 0.15 mg/mL, 25 °C, three scans averaged. How it is done:
Circular dichroism spectroscopy was applied to evaluate the conformational changes of peptides induced by membrane-mimetic environments. The secondary structures of MP and some of its MP analogs (Table 4) were determined in water, 50% 2,2,2-trifluoroethanol (TFE) and 0.1 M Tris buffer with the addition of 50 mM SDS. The relative α-helix fraction (fH) values presented in Table 4, calculated from the values of mean residue ellipticity at 222 nm, reflect the ability of peptides to adopt helical structure in the tested environments.
Circular dichroism (CD) spectra of peptides were recorded on a Jasco J-815 spectropolarimeter (Jasco Int. Co., Ltd., Tokyo, Japan). The CD spectra were acquired for peptides in a concentration of 0.15 mg/mL in water, 50% 2,2,2-trifluoroethanol (TFE) or 0.1 M tris(hydroxymethyl)aminomethane (Tris) buffer (pH 7.01) with the addition of 50 mM SDS (sodium dodecylsulphate) in 0.1 cm path length cuvettes. Measurements were taken at 25 °C in a spectral range of 193–260 nm with a bandwidth of 1 nm and response of 1 s. The spectra were averaged after three scans. Ellipticity was measured in mdeg units and converted to mean residue ellipticity (Θ). The relative helix content (fH) was calculated from the mean residue ellipticity values at 222 nm using the method proposed by Rohl and Baldwin [50] and described previously. Helical wheel projections (Figure 3) were made with HeliQuest https://heliquest.ipmc.cnrs.fr/ (accessed on 1 June 2022).
In general terms: Circular dichroism is widely used to follow secondary structure.

[5] abbreviates: same MIC expressed as molar concentration, broth microdilution (CLSI), Mueller–Hinton broth, 37 °C, triplicate.
The mark [6] stands for this setting: broth microdilution (CLSI), Mueller–Hinton broth, 37 °C, triplicate.

Converted amounts (≈) assume the structure as drawn. Where two headings read alike, the source gives them in different places. Ends that are not written are not given here. Some results are limits rather than exact numbers.

Turning to `CNC(C)C1CCC(N)C(OC2C(N)CC(N)C(OC3OCC(C)(O)C(NC)C3O)C2O)O1` (stereo not drawn) [Gentamicin, gentamicin, reference compound], the MIC worked out at 0.5 µg/mL in series [1] (Staphylococcus aureus, NCTC4163); 1.1 µM in series [1] (Staphylococcus aureus, NCTC4163, same MIC expressed as molar concentration, broth microdilution (CLSI), Mueller–Hinton broth, 37 °C, triplicate); 1 µg/mL in series [2] (Escherichia coli, NCTC8196); 2.1 µM in series [2] (Escherichia coli, NCTC8196, same MIC expressed as molar concentration, broth microdilution (CLSI), Mueller–Hinton broth, 37 °C, triplicate); 0.25 µg/mL (≈ 0.523 µM) in series [3] (Pseudomonas, NCTC6749, read-out: MIC P. aeruginosae).
Regarding `CC[C@H](C)[C@H](N)C(=O)N[C@@H](CC(N)=O)C(=O)N[C@@H](CC(C)C)C(=O)N[C@@H](CCCCN)C(=O)N[C@@H](C)C(=O)N[C@@H](CC(C)C)C(=O)N[C@@H](C)C(=O)N[C@@H](C)C(=O)N[C@@H](CC(C)C)C(=O)N[C@@H](C)C(=O)N[C@@H](CCCCN)C(=O)N[C@@H](CCCCN)C(=O)N[C@H](C(=O)N[C@@H](CC(C)C)C(N)=O)[C@@H](C)CC` [MP, mastoparan], the MIC in series [1] (setting [5]) was 5.4 µM; in series [2] (setting [5]), 21.6 µM. In addition, the “MIC P. aeruginosae” value in series [3] was determined as 256 µg/mL (≈ 173 µM).
With `CC[C@H](C)[C@H](NC(=O)[C@H](CCCCN)NC(=O)[C@H](CCCCN)NC(=O)[C@H](C)NC(=O)[C@H](CC(C)C)NC(=O)[C@H](C)NC(=O)[C@H](C)NC(=O)[C@H](CC(C)C)NC(=O)[C@H](C)NC(=O)[C@H](CCCCN)NC(=O)[C@H](CC(C)C)NC(=O)[C@H](CC(N)=O)NC(=O)[C@@H](NC(=O)[C@H](CCCCN)NC(=O)CNC(=O)[C@H](CC(C)C)NC(=O)[C@H](CC(C)C)NC(=O)[C@H](Cc1ccc(O)cc1)NC(=O)CNC(=O)[C@H](C)N)[C@@H](C)CC)C(=O)N[C@@H](CC(C)C)C(N)=O` [TP10, transportan 10, reference compound], in series [3], the “MIC P. aeruginosae” value is 256 µg/mL (≈ 117 µM).
As to `CC[C@H](C)[C@H](NC(=O)[C@H](CCCCN)NC(=O)CNC(=O)[C@H](CC(C)C)NC(=O)[C@H](CC(C)C)NC(=O)[C@H](Cc1ccc(O)cc1)NC(=O)CNC(=O)[C@H](C)N)C(=O)N[C@@H](CC(N)=O)C(=O)N[C@@H](CC(C)C)C(=O)N[C@@H](CCCCN)C(=O)N[C@@H](C)C(=O)N[C@@H](CC(C)C)C(=O)N[C@@H](C)C(=O)N[C@@H](C)C(=O)N[C@@H](CC(C)C)C(=O)N[C@@H](C)C(=O)N[C@@H](CCCCN)C(=O)N[C@@H](CCCCN)C(=O)N[C@H](C(=O)N[C@@H](CC(C)C)C(=O)N[C@@H](Cc1ccc(O)cc1)C(=O)N[C@@H](CO)C(=O)N1CCC[C@H]1C(=O)N[C@@H](Cc1c[nH]c2ccccc12)C(=O)N[C@H](C(=O)N[C@@H](CC(N)=O)C(=O)N[C@@H](Cc1ccccc1)C(N)=O)[C@@H](C)O)[C@@H](C)CC` [TP10-RIP], the “MIC S. aureus” value in series [1] (setting [6]) was found to be 128 µg/mL (≈ 41.6 µM). Also, the “MIC E. coli” value in series [2] (setting [6]) is greater than 256 µg/mL. Besides, the “MIC P. aeruginosae” value in series [3] was greater than 256 µg/mL. The “Relative α-helix fraction (fH), 0.1 M Tris + 50 mM SDS” value in series [4] (0.1 M Tris buffer pH 7.01 + 50 mM SDS, from mean residue ellipticity at 222 nm) came to 0.25. In addition, the “Relative α-helix fraction (fH), 50% TFE” value in series [4] (50% TFE, from mean residue ellipticity at 222 nm (Rohl and Baldwin)) is on record as 0.27. Moreover, the “Relative α-helix fraction (fH), water” value in series [4] (water, from mean residue ellipticity at 222 nm (Rohl and Baldwin)) worked out at 0.08.
Regarding `CC[C@H](C)[C@H](NC(=O)[C@H](CCCCN)NC(=O)[C@H](CCCCN)NC(=O)[C@H](C)NC(=O)[C@H](CC(C)C)NC(=O)[C@H](C)NC(=O)[C@H](C)NC(=O)[C@H](CC(C)C)NC(=O)[C@H](C)NC(=O)[C@H](CCCCN)NC(=O)[C@H](CC(C)C)NC(=O)[C@H](CC(N)=O)NC(=O)[C@@H](NC(=O)[C@H](CCCCN)NC(=O)CNC(=O)[C@H](CC(C)C)NC(=O)[C@H](CC(C)C)NC(=O)[C@H](Cc1ccc(O)cc1)NC(=O)CNC(=O)[C@H](C)NC(=O)[C@H](CO)NC(=O)[C@H](CC(N)=O)NC(=O)[C@H](CC(C)C)NC(=O)[C@@H](NC(=O)[C@H](Cc1c[nH]c2ccccc12)NC(=O)CN)[C@@H](C)O)[C@@H](C)CC)C(=O)N[C@@H](CC(C)C)C(N)=O` [TP, transportan, reference compound], the “MIC P. aeruginosae” value in series [3] is greater than 256 µg/mL.
Take `CC[C@H](C)[C@H](NC(=O)[C@H](CCCCN)NC(=O)[C@H](CCCCN)NC(=O)[C@H](C)NC(=O)[C@H](CC(C)C)NC(=O)[C@H](C)NC(=O)[C@H](C)NC(=O)[C@H](CC(C)C)NC(=O)[C@H](C)NC(=O)[C@H](CCCCN)NC(=O)[C@H](CC(C)C)NC(=O)[C@H](CC(N)=O)NC(=O)[C@@H](NC(=O)[C@H](CCCCNC(=O)Cn1cnc2ccccc21)NC(=O)CNC(=O)[C@H](CC(C)C)NC(=O)[C@H](CC(C)C)NC(=O)[C@H](Cc1ccc(O)cc1)NC(=O)CNC(=O)[C@H](C)N)[C@@H](C)CC)C(=O)N[C@@H](CC(C)C)C(N)=O` [[Lys^7 (BnzAc)] TP10]: the “MIC S. aureus” value in series [1] (setting [6]) is 256 µg/mL (≈ 109 µM). The “MIC E. coli” value in series [2] (setting [6]) was greater than 256 µg/mL. For the same molecule, the “MIC P. aeruginosae” value in series [3] is greater than 256 µg/mL.
Consider `CC[C@H](C)[C@H](NC(=O)[C@H](CCCCN)NC(=O)[C@H](CCCCN)NC(=O)[C@H](C)NC(=O)[C@H](CC(C)C)NC(=O)[C@H](C)NC(=O)[C@H](C)NC(=O)[C@H](CC(C)C)NC(=O)[C@H](C)NC(=O)[C@H](CCCCN)NC(=O)[C@H](CC(C)C)NC(=O)[C@H](CC(N)=O)NC(=O)[C@@H](NC(=O)[C@H](CCCCNC(=O)Cn1c(-c2ccccc2Cl)nc2ccccc21)NC(=O)CNC(=O)[C@H](CC(C)C)NC(=O)[C@H](CC(C)C)NC(=O)[C@H](Cc1ccc(O)cc1)NC(=O)CNC(=O)[C@H](C)N)[C@@H](C)CC)C(=O)N[C@@H](CC(C)C)C(N)=O` [[Lys^7 (ClBnzAc)] TP10], for which, in series [1] (setting [6]), the “MIC S. aureus” value is greater than 256 µg/mL. The “MIC E. coli” value in series [2] (setting [6]) was greater than 256 µg/mL. In series [3], the “MIC P. aeruginosae” value is greater than 256 µg/mL.
Regarding `CCCCCCCCCc1nc2ccccc2n1CC(=O)NCCCC[C@H](NC(=O)CNC(=O)[C@H](CC(C)C)NC(=O)[C@H](CC(C)C)NC(=O)[C@H](Cc1ccc(O)cc1)NC(=O)CNC(=O)[C@H](C)N)C(=O)N[C@H](C(=O)N[C@@H](CC(N)=O)C(=O)N[C@@H](CC(C)C)C(=O)N[C@@H](CCCCN)C(=O)N[C@@H](C)C(=O)N[C@@H](CC(C)C)C(=O)N[C@@H](C)C(=O)N[C@@H](C)C(=O)N[C@@H](CC(C)C)C(=O)N[C@@H](C)C(=O)N[C@@H](CCCCN)C(=O)N[C@@H](CCCCN)C(=O)N[C@H](C(=O)N[C@@H](CC(C)C)C(N)=O)[C@@H](C)CC)[C@@H](C)CC` [[Lys^7 (NBnzAc)] TP10], the “MIC S. aureus” value in series [1] (setting [6]) is greater than 256 µg/mL. Also, the “MIC E. coli” value in series [2] (setting [6]) is greater than 256 µg/mL. In series [3], the “MIC P. aeruginosae” value is greater than 256 µg/mL.
Take “AGYLLGINLKALAALAKKILYKPITNF-NH2 [[desLys^7] TP10-[Lys^2, Ile^4] RIP]”: in series [3], the “MIC P. aeruginosae” value is greater than 256 µg/mL.
Regarding “GWTLNSAGYLLGPINLKALAALAKKIL-NH2 [Galp, galparan, reference compound]”, the “MIC P. aeruginosae” value in series [3] is greater than 256 µg/mL.
On the same count and under the same terms, the figure for “INLKALAALAKKILYKPITNF-NH2 [MP-[Lys^2, Ile^4] RIP]” is greater than 256 µg/mL.
In the case of KALAALAKKIL-NH2 [MP (4–14)], the “MIC P. aeruginosae” value in series [3] is greater than 256 µg/mL.
On to “KALAALAKKILYKPITNF-NH2 [MP (4–14)-[Lys^2, Ile^4] RIP]”, for which the “MIC P. aeruginosae” value in series [3] is greater than 256 µg/mL.
Same read-out and setting: the figure for KALAALAKKILYSPWTNF-NH2 [MP (4–14)-RIP] is greater than 256 µg/mL; for “YKPITNF-NH2 [[Lys^2, Ile^4] RIP, reference compound]” it is greater than 256 µg/mL.
“YKPITNFINLKALAALAKKIL-NH2 [[Lys^2, Ile^4] RIP-MP]”: the “MIC P. aeruginosae” value in series [3] was greater than 256 µg/mL.
